Activity calls are given as the source filed them. Where only a bound is given, the exact number is not on record here.

Experiment [1] concerns the target T1, Microphthalmia-associated transcription factor (Homo sapiens, UniProt O75030).
T1 sequence (O75030 whole entry): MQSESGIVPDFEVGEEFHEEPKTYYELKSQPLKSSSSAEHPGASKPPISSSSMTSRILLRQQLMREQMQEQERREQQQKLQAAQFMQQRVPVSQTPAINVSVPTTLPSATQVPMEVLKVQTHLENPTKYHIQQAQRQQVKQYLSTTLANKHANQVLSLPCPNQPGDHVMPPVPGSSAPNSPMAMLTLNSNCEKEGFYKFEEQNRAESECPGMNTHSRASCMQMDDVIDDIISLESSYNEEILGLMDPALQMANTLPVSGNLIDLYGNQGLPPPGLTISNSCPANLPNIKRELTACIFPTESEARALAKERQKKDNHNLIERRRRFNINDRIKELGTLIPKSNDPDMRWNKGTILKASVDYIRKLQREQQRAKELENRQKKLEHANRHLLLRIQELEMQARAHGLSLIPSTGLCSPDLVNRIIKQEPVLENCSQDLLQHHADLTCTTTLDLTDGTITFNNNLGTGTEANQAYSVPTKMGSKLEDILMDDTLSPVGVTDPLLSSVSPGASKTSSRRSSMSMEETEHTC
Put plainly: TRPM1 promoter luciferase signal decrease, dose response, MITF inhibitor project, cell-based, SK-MEL-5, cherry-picked, set 3 (AID 493073).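 Also: SK-MEL-5 melanoma cells with luciferase driven by the MITF target TRPM1 promoter.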 It is filed as functional.

Experiment [2] is described as follows: A375 melanoma cell viability loss, dose response, counter-screen for MITF inhibitor project, CellTiter-Glo luminescence, dry powder, set 4 (AID 624364).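 Also: A375 melanoma cells are MITF independent so this is a counter screen.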 Format: functional, cell-based. The settings on record: A-375.
Experiment [3] deals with T2, Sentrin-specific protease 7 (Homo sapiens, UniProt Q9BQF6).
T2 sequence (Q9BQF6 whole entry): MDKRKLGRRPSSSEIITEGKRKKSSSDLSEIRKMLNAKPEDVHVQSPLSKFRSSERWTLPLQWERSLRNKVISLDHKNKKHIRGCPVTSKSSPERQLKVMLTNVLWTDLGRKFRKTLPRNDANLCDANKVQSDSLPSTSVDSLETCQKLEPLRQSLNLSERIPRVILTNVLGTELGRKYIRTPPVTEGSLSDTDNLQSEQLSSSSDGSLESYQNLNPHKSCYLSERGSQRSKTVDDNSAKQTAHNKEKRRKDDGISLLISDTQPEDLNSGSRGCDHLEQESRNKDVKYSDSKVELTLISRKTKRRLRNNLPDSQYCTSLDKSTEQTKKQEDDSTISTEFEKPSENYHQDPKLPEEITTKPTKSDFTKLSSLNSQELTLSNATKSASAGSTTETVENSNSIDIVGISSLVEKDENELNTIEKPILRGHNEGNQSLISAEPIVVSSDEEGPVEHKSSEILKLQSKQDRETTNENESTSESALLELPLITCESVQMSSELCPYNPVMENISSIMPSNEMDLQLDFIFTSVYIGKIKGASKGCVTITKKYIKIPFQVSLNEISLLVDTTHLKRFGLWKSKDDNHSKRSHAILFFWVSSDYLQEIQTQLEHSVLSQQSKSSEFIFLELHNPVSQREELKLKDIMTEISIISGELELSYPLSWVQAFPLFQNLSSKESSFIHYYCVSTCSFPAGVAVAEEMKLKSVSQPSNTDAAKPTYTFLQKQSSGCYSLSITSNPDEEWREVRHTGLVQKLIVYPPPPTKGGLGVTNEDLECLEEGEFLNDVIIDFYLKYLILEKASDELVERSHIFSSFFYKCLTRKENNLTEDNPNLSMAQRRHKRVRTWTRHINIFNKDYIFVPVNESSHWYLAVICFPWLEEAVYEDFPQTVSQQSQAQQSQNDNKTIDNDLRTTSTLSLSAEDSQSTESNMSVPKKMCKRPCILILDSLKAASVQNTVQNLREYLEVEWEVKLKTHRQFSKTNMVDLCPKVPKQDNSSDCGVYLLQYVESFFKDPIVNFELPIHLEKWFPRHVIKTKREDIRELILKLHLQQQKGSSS
It is filed as functional.

In a further experiment the target is Hexokinase-1 (Homo sapiens, UniProt P19367). In words: hexokinase 1 activators, dose response, selectivity assay for HKDC1 activator project, biochemical (AID 504762). It is filed as functional.
The target of experiment [4] is T3, Lysine-specific demethylase 4C (Homo sapiens, UniProt Q9H3R0).
T3 sequence (Q9H3R0 whole entry): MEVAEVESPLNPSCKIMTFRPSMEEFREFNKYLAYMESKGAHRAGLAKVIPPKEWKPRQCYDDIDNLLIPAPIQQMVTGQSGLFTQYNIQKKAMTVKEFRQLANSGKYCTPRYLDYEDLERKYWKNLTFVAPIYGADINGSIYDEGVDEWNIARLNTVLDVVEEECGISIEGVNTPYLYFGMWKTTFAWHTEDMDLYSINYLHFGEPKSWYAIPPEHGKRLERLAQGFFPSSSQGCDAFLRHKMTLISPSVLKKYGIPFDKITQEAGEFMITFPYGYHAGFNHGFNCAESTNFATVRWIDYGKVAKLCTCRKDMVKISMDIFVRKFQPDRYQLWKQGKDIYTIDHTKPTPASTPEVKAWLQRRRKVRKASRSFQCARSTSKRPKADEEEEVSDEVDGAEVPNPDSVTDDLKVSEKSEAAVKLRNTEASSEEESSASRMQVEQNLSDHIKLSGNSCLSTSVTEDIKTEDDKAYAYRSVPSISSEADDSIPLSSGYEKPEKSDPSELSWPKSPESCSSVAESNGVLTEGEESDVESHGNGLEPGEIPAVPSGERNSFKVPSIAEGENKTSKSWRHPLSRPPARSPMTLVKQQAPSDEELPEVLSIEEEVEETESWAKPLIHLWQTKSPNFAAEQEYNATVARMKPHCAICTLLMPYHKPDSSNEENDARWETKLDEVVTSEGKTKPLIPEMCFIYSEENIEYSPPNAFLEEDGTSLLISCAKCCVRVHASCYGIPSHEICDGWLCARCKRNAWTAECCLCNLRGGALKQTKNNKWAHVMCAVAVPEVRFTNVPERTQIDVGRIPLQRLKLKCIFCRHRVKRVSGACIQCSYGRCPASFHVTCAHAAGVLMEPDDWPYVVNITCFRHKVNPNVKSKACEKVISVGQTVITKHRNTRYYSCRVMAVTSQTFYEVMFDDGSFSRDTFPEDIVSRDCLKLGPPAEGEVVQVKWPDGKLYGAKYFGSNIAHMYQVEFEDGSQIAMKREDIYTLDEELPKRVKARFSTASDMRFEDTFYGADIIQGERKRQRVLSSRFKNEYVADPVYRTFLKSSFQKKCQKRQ
In words: GASC-1 (JMJD2C) histone demethylase inhibitors, dose response, biochemical, DELFIA europium, cherry-picked samples (AID 488835). It is filed as functional.

The subject of the next experiment is HEK293. In words: Fluorescence-based counterscreen for potentiators or agonists of NPY-Y2: cell-based high-throughput dose response assay to identify inhibitors of cyclic nucleotide gated ion channel (CNGC) activity. In this assay, the parental HEK293 cell line transfected with a cyclic-nucleotide gated ion channel (CNGC)-based cAMP sensor is used to measure inhibition of isoproterenol-induced CNGC activity by test compound. Format: functional. The settings on record: Homo sapiens.

The target of experiment [5] is Heat shock protein HSP 90-alpha (Homo sapiens, UniProt P07900). It is filed as functional, organism-based.
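For IC50 in this document: Luminescence-based dose-response confirmation of ultra-high-throughput screening hits, measuring inhibition of SENP7.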

Hexokinase-1, sequence (P19367 whole entry): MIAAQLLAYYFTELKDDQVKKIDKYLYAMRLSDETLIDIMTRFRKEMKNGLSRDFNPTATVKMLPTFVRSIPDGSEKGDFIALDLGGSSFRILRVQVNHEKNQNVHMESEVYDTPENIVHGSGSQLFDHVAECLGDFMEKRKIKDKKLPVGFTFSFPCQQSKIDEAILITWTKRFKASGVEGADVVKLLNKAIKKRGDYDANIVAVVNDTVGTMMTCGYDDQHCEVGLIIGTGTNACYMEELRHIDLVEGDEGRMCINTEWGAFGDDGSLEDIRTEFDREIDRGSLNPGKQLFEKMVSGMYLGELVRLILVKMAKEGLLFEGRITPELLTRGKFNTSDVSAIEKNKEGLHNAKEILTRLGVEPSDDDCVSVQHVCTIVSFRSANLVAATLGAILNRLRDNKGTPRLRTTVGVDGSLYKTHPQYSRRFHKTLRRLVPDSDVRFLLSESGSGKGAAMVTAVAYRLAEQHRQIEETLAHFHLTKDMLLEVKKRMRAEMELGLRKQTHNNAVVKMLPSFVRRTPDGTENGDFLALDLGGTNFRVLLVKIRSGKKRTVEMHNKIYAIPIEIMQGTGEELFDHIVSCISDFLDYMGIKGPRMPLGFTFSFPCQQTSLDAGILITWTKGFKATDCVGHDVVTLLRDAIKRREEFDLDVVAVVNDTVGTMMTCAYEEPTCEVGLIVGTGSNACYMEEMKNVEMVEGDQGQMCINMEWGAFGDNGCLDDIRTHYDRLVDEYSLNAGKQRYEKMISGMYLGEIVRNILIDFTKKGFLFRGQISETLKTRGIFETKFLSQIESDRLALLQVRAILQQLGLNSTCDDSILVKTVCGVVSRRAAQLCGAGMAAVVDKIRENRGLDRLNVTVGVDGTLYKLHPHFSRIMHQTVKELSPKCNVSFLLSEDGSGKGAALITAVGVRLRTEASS

Regarding `O=C(CNc1cccc2ccccc12)N/N=C/c1ccc([N+](=O)[O-])o1`, the AC50 is 5.05 µM (active) in experiment [1] and > 70 µM (inactive) in experiment [2].

On to `O=C1NC(=S)N/C1=C/c1cc2c(cc1[N+](=O)[O-])OCO2`, for which the IC50 in experiment [3] was 25.4 µM (active). In addition, the EC50 on Hexokinase-1 was 37.9 µM (inactive). Moreover, the concentration at half-maximal activity (AC50) in experiment [4] is 30.4 µM (active).

Turning to `O=C(CC(O)(C(F)(F)F)C(F)(F)F)Nc1ccc(Cl)c(Cl)c1`, the EC50 in the experiment with HEK293 was > 35.4 µM (not active). Besides, in experiment [5], the AC50 is 16.8 µM (active).
